{"source": "ChEMBL document CHEMBL5338754", "about": "“Identification of Binding Sites in the Nucleotide-Binding Domain of P-Glycoprotein for a Potent and Nontoxic Modulator, the Amine-Containing Monomeric Flavonoid FM04” (J Med Chem, 2023)", "assay_type_in_all_cases": "cell-based", "settings_in_all_cases": "2.5 h", "key": {"[1]": {"molecular_target": "ATP-dependent translocase ABCB1 (Homo sapiens, UniProt P08183, Q1193A)", "sequence (P08183 whole entry Q1193A)": "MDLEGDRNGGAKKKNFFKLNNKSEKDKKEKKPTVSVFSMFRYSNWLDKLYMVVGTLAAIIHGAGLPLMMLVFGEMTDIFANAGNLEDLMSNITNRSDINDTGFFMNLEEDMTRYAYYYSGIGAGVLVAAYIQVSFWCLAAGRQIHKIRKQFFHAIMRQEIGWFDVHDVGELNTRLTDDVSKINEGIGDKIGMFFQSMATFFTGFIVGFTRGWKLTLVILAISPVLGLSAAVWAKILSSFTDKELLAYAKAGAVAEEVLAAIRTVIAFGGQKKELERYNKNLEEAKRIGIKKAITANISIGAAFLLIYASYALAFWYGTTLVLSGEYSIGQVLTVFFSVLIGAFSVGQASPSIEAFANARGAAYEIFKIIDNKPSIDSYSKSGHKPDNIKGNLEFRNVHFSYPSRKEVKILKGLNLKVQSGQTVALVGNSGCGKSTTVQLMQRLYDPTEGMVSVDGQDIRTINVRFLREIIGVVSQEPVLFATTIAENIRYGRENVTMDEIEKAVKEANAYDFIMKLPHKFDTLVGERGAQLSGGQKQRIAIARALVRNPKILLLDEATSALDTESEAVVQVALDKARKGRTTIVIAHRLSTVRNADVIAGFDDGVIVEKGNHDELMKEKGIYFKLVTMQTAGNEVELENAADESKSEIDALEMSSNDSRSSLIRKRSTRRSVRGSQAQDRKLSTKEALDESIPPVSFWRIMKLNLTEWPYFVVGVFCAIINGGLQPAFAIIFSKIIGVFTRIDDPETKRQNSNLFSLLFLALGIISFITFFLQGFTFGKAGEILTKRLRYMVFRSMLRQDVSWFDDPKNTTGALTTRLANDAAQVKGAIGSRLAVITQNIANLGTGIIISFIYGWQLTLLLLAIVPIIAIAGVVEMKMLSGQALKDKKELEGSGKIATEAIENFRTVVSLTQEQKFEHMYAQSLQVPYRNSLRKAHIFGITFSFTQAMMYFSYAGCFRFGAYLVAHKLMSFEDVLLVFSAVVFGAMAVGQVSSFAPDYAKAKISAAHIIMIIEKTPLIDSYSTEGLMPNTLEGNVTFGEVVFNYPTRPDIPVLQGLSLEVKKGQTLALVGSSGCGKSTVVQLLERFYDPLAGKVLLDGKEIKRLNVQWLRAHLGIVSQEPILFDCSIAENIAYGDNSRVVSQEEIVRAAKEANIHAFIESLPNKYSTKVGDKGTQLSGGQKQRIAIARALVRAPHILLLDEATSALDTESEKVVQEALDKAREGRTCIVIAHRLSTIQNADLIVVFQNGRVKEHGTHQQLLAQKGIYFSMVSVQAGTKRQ", "assay": "Negative allosteric modulator activity at human P-gp Q1193A mutant expressed in HEK293FT cells assessed as increase in intracellular doxorubicin accumulation using doxorubicin as substrate at 1 uM incubated for 150 mins by microplate reader assay (reference value: 53.6 +/- 3 %)"}, "[2]": {"molecular_target": "ATP-dependent translocase ABCB1 (Homo sapiens, UniProt P08183, H1195A)", "assay": "Negative allosteric modulator activity at human P-gp H1195A mutant expressed in HEK293FT cells assessed as fold change in intracellular doxorubicin accumulation using doxorubicin as substrate at 1 uM incubated for 150 mins by microplate reader assay relative to DMSO"}, "[3]": {"molecular_target": "ATP-dependent translocase ABCB1 (Homo sapiens, UniProt P08183, G1114L)", "sequence (P08183 whole entry G1114L)": "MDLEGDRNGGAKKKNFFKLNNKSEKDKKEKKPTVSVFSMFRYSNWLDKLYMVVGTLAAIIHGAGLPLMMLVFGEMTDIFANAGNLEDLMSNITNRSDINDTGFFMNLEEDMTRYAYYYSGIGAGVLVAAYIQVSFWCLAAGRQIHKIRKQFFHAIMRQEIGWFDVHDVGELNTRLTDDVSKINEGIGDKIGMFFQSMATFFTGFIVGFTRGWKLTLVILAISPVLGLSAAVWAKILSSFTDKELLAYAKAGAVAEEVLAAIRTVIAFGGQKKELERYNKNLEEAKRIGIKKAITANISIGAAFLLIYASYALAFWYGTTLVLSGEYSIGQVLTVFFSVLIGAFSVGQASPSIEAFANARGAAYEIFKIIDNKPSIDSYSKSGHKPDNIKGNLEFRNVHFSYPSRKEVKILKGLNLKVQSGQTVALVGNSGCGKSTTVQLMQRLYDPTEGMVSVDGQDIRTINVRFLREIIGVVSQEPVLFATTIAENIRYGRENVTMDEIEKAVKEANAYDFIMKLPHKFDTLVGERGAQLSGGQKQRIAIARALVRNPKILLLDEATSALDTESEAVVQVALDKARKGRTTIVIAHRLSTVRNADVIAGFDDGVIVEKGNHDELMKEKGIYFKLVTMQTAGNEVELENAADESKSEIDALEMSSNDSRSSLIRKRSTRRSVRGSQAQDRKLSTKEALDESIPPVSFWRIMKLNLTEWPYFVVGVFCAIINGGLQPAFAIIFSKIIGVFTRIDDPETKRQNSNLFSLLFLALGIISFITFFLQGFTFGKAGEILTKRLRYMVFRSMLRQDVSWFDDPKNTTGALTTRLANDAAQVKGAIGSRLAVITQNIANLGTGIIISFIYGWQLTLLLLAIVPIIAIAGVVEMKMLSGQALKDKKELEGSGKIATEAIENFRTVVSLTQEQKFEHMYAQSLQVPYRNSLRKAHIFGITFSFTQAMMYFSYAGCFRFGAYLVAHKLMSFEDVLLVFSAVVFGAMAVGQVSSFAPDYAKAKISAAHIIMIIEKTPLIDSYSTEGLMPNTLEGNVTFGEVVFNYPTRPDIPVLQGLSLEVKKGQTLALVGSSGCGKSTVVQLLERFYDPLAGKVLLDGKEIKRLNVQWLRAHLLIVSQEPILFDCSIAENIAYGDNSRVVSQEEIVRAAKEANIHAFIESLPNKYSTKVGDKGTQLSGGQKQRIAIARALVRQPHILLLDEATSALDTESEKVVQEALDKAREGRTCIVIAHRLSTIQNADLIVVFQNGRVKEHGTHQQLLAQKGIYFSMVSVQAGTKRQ", "assay": "Negative allosteric modulator activity at human P-gp G1114L mutant expressed in HEK293FT cells assessed as fold change in intracellular doxorubicin accumulation using doxorubicin as substrate at 1 uM incubated for 150 mins by microplate reader assay relative to DMSO"}, "[4]": {"molecular_target": "ATP-dependent translocase ABCB1 (Homo sapiens, UniProt P08183, I1115L)", "sequence (P08183 whole entry I1115L)": "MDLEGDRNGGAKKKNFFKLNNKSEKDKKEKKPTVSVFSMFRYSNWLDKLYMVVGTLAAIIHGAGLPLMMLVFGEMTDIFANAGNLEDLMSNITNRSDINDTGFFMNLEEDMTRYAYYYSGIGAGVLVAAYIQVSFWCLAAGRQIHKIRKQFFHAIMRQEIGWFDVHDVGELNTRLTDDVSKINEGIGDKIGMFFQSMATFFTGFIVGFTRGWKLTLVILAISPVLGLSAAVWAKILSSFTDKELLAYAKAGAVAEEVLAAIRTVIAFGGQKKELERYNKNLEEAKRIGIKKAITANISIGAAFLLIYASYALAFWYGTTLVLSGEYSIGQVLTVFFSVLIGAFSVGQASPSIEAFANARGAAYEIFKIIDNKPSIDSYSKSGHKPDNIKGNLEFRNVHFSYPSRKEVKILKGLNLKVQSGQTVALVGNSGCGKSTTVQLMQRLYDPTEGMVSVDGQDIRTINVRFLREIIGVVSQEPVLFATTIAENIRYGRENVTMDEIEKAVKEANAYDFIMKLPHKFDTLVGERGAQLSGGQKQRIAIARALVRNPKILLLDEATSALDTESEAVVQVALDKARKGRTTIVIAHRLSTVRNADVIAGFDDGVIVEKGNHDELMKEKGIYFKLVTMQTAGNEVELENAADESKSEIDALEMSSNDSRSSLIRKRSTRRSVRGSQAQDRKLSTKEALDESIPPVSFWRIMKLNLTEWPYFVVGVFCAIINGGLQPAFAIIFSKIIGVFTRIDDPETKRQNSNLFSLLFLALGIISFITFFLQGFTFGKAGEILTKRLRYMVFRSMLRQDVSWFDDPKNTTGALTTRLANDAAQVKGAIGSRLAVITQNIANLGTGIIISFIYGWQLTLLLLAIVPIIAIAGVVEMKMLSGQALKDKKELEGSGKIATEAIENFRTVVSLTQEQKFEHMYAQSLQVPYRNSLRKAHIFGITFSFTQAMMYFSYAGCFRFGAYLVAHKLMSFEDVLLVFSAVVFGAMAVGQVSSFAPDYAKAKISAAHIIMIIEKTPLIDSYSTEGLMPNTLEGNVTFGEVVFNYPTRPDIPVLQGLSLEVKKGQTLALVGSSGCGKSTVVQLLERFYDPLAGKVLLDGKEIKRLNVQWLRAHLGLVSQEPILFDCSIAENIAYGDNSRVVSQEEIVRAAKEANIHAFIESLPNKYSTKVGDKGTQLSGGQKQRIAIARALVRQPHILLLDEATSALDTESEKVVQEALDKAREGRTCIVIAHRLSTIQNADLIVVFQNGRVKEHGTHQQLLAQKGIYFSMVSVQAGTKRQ", "assay": "Negative allosteric modulator activity at human P-gp I1115L mutant expressed in HEK293FT cells assessed as fold change in intracellular doxorubicin accumulation using doxorubicin as substrate at 1 uM incubated for 150 mins by microplate reader assay relative to DMSO"}, "[5]": {"molecular_target": "ATP-dependent translocase ABCB1 (Homo sapiens, UniProt P08183, T1226W)", "sequence (P08183 whole entry T1226W)": "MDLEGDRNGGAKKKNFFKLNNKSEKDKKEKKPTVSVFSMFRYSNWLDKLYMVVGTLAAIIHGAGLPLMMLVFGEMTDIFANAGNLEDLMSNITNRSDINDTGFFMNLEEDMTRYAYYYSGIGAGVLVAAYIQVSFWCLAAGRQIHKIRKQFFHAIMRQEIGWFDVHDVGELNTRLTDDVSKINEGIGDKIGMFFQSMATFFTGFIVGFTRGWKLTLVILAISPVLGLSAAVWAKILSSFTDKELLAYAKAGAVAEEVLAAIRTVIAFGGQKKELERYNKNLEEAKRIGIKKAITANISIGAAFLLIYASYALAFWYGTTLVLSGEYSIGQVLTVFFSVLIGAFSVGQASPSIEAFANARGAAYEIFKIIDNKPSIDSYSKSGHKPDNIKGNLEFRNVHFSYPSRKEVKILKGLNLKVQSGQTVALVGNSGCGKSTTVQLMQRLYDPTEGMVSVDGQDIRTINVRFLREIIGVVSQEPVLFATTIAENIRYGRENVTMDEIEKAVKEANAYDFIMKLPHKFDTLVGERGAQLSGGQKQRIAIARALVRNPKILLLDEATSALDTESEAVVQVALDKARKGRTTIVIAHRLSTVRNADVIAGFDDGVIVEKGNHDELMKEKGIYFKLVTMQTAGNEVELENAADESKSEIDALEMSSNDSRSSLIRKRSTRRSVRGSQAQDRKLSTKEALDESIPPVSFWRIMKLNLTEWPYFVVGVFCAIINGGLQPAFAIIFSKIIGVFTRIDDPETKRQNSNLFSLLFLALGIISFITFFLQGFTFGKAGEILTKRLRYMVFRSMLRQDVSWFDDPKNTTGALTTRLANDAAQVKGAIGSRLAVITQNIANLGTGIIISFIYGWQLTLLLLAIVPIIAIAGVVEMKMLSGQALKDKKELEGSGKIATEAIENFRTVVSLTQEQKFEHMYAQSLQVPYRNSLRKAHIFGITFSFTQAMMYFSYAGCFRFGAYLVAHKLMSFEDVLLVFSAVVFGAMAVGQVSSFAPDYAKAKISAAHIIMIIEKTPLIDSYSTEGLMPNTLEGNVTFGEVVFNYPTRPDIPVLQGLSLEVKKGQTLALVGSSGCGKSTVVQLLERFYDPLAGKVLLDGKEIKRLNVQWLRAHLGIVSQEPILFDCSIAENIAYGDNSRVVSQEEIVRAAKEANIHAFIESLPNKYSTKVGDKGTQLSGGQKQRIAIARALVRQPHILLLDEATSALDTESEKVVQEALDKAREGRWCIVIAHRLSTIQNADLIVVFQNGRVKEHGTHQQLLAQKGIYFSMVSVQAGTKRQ", "assay": "Negative allosteric modulator activity at human P-gp T1226W mutant expressed in HEK293FT cells assessed as fold change in intracellular doxorubicin accumulation using doxorubicin as substrate at 1 uM incubated for 150 mins by microplate reader assay relative to DMSO"}}}
{"smiles": "O=c1cc(-c2ccc(OCCOCCNCc3ccccc3)cc2)oc2ccccc12", "values": [{"measurement": "Activity", "setting": "[1]", "value": 59.8, "unit": "%"}, {"measurement": "fold change (FC)", "setting": "[2]", "value": 1.1}, {"measurement": "fold change (FC)", "setting": "[3]", "value": 1}, {"measurement": "fold change (FC)", "setting": "[4]", "value": 1.7}, {"measurement": "fold change (FC)", "setting": "[5]", "value": 1.5}]}
